Experimental data as given in patent publication US8883789B2, “Piperazine derivatives and their use as positive allosteric modulators of mGluR5 receptors” (Boehringer Ingelheim International GmbH, priority 2011, dated 2014).
pEC50: −log10 of the molar value.

Target: T1, human recombinant mGluR5 (Homo sapiens, UniProt P41594)
T1 construct: expressed in transfected cells; hygromycin and geneticin selection
Test: positive modulation of mGluR5, calcium based FLIPR assay
Conditions: HEK 293 cell line expressing human recombinant mGluR5; Ca2+ peak height after glutamate at approximately 5% basal stimulation; nonlinear regression
Outline: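 HEK293 cells with tetracycline-free induction, Calcium-4 dye-loaded in Ringer pH 7.4. Compound added 5 min before glutamate at ~5% of maximal effect, 1% DMSO. EC50 from peak Ca2+ fluorescence, normalized to basal glutamate (100%) and 10 μM CDPPB (200%), via nonlinear regression.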

T1 sequence (P41594 21-1212): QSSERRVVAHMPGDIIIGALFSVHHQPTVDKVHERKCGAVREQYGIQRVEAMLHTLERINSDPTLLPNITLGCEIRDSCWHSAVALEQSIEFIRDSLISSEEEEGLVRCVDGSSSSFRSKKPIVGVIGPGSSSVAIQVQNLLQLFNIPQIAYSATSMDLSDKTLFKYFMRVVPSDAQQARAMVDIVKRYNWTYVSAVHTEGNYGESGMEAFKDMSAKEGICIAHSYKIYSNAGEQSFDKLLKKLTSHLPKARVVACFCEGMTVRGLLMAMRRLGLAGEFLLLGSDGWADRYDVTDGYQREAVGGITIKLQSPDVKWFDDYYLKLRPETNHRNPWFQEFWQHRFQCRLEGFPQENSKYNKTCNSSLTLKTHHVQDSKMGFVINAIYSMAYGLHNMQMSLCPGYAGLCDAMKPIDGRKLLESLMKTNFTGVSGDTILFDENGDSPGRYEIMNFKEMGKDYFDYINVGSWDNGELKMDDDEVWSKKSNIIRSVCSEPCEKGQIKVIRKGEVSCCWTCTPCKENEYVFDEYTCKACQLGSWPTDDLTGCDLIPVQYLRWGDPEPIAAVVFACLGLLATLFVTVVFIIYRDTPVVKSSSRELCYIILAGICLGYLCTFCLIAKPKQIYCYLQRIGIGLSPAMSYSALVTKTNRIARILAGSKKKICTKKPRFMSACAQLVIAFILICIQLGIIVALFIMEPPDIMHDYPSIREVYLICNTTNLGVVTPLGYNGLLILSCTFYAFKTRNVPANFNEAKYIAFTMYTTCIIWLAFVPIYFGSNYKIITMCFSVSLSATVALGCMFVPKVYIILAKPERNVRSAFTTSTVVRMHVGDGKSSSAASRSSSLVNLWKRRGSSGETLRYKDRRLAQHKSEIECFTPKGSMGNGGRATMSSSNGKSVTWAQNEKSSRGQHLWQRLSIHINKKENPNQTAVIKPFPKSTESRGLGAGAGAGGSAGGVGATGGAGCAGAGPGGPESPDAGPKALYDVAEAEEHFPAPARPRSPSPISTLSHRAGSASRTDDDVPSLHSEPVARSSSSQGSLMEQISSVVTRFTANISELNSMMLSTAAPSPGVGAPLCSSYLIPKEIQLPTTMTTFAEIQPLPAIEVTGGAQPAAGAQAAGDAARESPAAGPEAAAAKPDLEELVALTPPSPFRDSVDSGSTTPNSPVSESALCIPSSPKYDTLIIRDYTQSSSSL

| pEC50 | Compound |
| --- | --- |
| 5.88 | CC1CN(C(=O)c2cccc3c2OCO3)CCN1C(=O)c1ncn(-c2cccc(Cl)c2)n1 (stereo not drawn) [Example 286] |
| 6.67 | COc1cccc(C(=O)N2CCN(C(=O)c3ncn(-c4ccccc4)n3)C(C)(C)C2)c1 [Example 122] |
| 6.98 | CCCOc1nc(C(=O)N2CCN(C(=O)c3ncn(-c4cccc(Cl)c4)n3)C(C)(C)C2)cc2ccccc12 [Example 87] |
| 7.25 | CC1(C)CN(C(=O)c2cc(Cl)c3c(c2)OCCO3)CCN1C(=O)c1nnn(-c2cccc(Cl)c2)n1 [Example 171, [4-(8-Chloro-2,3-dihydro-benzo[1,4]dioxine-6-carbonyl)-2,2-dimethyl-piperazin-1-yl]-[2-(3-chloro-phenyl)-2H-tetrazol-5-yl]-methanone] |
| 6.97 | CC1(C)CN(C(=O)c2nccc(C(F)(F)F)n2)CCN1C(=O)c1ncn(-c2cccc(Cl)c2)n1 [Example 84] |
| 6.83 | COc1cccc(C(=O)N2CCN(C(=O)c3ncn(-c4cc(F)ccc4F)n3)C(C)(C)C2)n1 [Example 197, [1-(2,5-Difluoro-phenyl)-1H-[1,2,4]triazol-3-yl]-[4-(6-methoxy-pyridine-2-carbonyl)-2,2-dimethyl-piperazin-1-yl]-methanone] |
| 5.66 | CCCc1nc2cc(C(=O)N3CCN(C(=O)c4ncn(-c5ccccc5)n4)C(C)(C)C3)cc(C)c2[nH]1 [Example 146] |
| 6.79 | CC1(C)CN(C(=O)c2cc(Cl)ccc2F)CCN1C(=O)c1ncn(-c2cccc(Cl)c2)n1 [Example 73] |
| 7.20 | CC(=O)c1cccc(C(=O)N2CCN(C(=O)c3ncn(-c4cccc(Cl)c4)n3)C(C)(C)C2)n1 [Example 52] |
| 6.92 | Cn1ccc2cc(C(=O)N3CCN(C(=O)c4ncn(-c5cccc(Cl)c5)n4)C(C)(C)C3)ccc21 [Example 82] |
| 7.49 | CC1(C)CN(C(=O)c2cccc(C(F)(F)F)c2)CCN1C(=O)c1ncn(-c2ccccc2)n1 [Example 98] |
| 6.41 | CC1(C)CN(C(=O)c2cccc(OC(F)(F)F)c2)CCN1C(=O)c1ncn(-c2cccc(Cl)c2)n1 [Example 37] |
